Measurements: patent publication US9370515B2, “Mixed lineage kinase inhibitors and method of treatments” (CALIFIA BIO, INC., priority 2013, dated 2016)

Each compound was assayed against MLK-3 (Homo sapiens, UniProt Q16584) (assay: Biochemical assay for the inhibition of kinase activity for MLK-3 (33P-ATP, HOTSPOT filter binding)). Conditions: activated MLK-3 20 nM, ATP 50 μM, myelin basic protein 20 μM, 20 minutes room temperature.
Method: Biochemical Assay for the Inhibition of Kinase Activity for MLK-3: Myelin basic protein (20 μM final concentration) is dissolved in 20 mM Hepes (pH 7.5) containing […], […], 0.02% Brij35, 0.02 mg/ml BSA, 0.1 μM Na3VO4, 2 mM DTT, and 1% DMSO. Activated MLK-3 is added and mixed (20 nM final concentration), and inhibitors are added in DMSO. ^33P-ATP (specific activity 500 μCi/μL) is delivered into the reaction mixture to initiate the reaction (ATP concentration is 50 μM) and the mixture is incubated at room temperature for 20 minutes. % Activity is determined using a proprietary HOTSPOT™ microfluidic filter binding technology. See, Expert Opin. Drug Discov. 2008 June; 3(6): 607-621.

Chain of MLK-3 (Q16584 whole entry): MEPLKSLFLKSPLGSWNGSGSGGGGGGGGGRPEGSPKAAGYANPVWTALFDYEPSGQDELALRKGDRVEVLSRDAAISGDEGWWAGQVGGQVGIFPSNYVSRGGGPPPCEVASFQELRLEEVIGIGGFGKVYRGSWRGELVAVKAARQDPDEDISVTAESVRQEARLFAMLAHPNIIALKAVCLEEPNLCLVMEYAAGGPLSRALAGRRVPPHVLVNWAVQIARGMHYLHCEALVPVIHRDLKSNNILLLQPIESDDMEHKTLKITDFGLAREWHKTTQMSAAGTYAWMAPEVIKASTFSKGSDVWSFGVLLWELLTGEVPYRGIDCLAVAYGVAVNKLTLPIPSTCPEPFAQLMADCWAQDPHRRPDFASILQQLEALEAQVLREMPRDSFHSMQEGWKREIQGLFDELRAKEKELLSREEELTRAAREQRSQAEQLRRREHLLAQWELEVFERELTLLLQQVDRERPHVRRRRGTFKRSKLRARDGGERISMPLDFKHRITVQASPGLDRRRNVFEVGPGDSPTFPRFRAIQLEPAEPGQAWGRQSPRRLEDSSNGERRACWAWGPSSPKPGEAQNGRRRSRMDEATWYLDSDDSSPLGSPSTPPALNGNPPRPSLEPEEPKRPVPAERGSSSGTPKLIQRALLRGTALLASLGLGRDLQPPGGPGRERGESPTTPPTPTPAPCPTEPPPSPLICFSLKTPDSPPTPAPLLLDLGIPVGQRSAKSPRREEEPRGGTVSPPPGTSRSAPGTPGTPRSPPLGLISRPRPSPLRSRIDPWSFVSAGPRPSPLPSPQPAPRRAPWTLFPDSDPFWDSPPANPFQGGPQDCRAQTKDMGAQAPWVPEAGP

Row | IC50 [nM] | SMILES
1 | 100 to 500 | O=C(O)c1cccc(Nc2ccc3ncc(-c4cc5ccccc5s4)n3n2)c1 [Compound 26, 3-(3-(benzo[b]thiophen-2-yl)imidazo[1,2-b]pyridazin-6-ylamino)benzoic acid]
2 | < 5000 | COc1ccc(Nc2ccc3ncc(-c4cc5cccc(C)c5s4)n3n2)cc1OC [Compound 202, N-(3,4-dimethoxyphenyl)-3-(7-methylbenzo[b]thiophen-2-yl)imidazo[1,2-b]pyridazin-6-amine]
3 | 500 to 1000 | OCCCCNc1ccc2ncc(-c3ccc4ccccc4c3)n2n1 [Compound 160, 4-(3-(naphthalen-3-yl)imidazo[1,2-b]pyridazin-6-ylamino)butan-1-ol]
4 | < 5000 | CCCNc1ccc2ncc(-c3ccc4[nH]ccc4c3)n2n1 [Compound 140, 3-(1H-indol-5-yl)-N-propylimidazo[1,2-b]pyridazin-6-amine]
5 | < 100 | COc1ccc(Nc2ccc3ncc(-c4cc5cnccc5s4)n3n2)cc1OC [Compound 206, N-(3,4-dimethoxyphenyl)-3-(thieno[3,2-c]pyridin-2-yl)imidazo[1,2-b]pyridazin-6-amine]
6 | < 5000 | COc1cccc(Nc2ccc3ncc(-c4ccc5[nH]ccc5c4)n3n2)c1 [Compound 54, 3-(1H-indol-5-yl)-N-(3-methoxyphenyl)imidazo[1,2-b]pyridazin-6-amine]
7 | 500 to 1000 | COc1cc2cc(-c3cnc4ccc(-c5cccc(CN6CCN(C)CC6)c5)nn34)sc2cc1OC [Compound 74, 3-(5,6-dimethoxybenzo[b]thiophen-2-yl)-6-(3-((4-methylpiperazin-1-yl)methyl)phenyl)imidazo[1,2-b]pyridazine]
8 | 100 to 500 | COc1ccc2cc(-c3cnc4ccc(N[C@H]5CC[C@H](O)CC5)nn34)[nH]c2c1 [Compound 86, trans-4-(3-(6-methoxy-1H-indol-2-yl)imidazo[1,2-b]pyridazin-6-ylamino)cyclohexanol]
9 | < 100 | COc1ccc(Nc2ccc3ncc(-c4cc5cccc(OC)c5[nH]4)n3n2)cc1OC [Compound 5, 3-(7-methoxy-1H-indol-2-yl)-N-(3,4-dimethoxyphenyl)imidazo[1,2-b]pyridazin-6-amine]
10 | 100 to 500 | c1cc2cc(-c3ccc4ncc(-c5ccc6[nH]ccc6c5)n4n3)ccc2[nH]1 [Compound 50, 3,6-di(1H-indol-5-yl)imidazo[1,2-b]pyridazine]
11 | < 5000 | COc1ccc(Nc2ccc3ncc(-c4cccc(O)c4)n3n2)cc1OC [Compound 9, 3-(6-(3,4-dimethoxyphenylamino)imidazo[1,2-b]pyridazin-3-yl)phenol]
12 | < 5000 | COc1cc(Nc2ccc3ncc(-c4cc5ccccc5s4)n3n2)ccn1 [Compound 34, 3-(benzo[b]thiophen-2-yl)-N-(2-methoxypyridin-4-yl)imidazo[1,2-b]pyridazin-6-amine]

Continued, compound first:

Row | SMILES | IC50 [nM]
13 | OCCNc1ccc2ncc(-c3cc4ccccc4s3)n2n1 [Compound 108, 2-(3-(benzo[b]thiophen-2-yl)imidazo[1,2-b]pyridazin-6-ylamino)ethanol] | 500 to 1000
14 | Cc1cncc2cc(-c3cnc4ccc(N[C@H]5CC[C@H](O)CC5)nn34)sc12 [Compound 215, trans-4-(3-(7-methylthieno[3,2-c]pyridin-2-yl)imidazo[1,2-b]pyridazin-6-ylamino)cyclohexanol] | < 100
15 | COc1cncc2cc(-c3cnc4ccc(N[C@H]5CC[C@H](OC)CC5)nn34)sc12 [Compound 217] | 100 to 500
16 | COc1cccc2cc(-c3cnc4ccc(N[C@H]5CC[C@H](OC)CC5)nn34)[nH]c12 [Compound 199, trans-3-(7-methoxy-1H-indol-2-yl)-N-(4-methoxycyclohexyl)imidazo[1,2-b]pyridazin-6-amine] | < 5000
17 | O[C@H]1CC[C@H](Nc2ccc3ncc(-c4cc5cccnc5s4)n3n2)CC1 [Compound 205, trans-4-(3-(thieno[2,3-b]pyridin-2-yl)imidazo[1,2-b]pyridazin-6-ylamino)cyclohexanol] | 100 to 500
18 | Oc1cccc(-c2cnc3ccc(N[C@H]4CC[C@H](O)CC4)nn23)c1 [Compound 101, trans-3-(6-(4-hydroxycyclohexylamino)imidazo[1,2-b]pyridazin-3-yl)phenol] | < 5000
19 | COc1cc2cc(-c3cnc4ccc(N[C@H]5CC[C@](C)(O)CC5)nn34)sc2cc1OC [Compound 173, (1r,4r)-4-(3-(5,6-dimethoxybenzo[b]thiophen-2-yl)imidazo[1,2-b]pyridazin-6-ylamino)-1-methylcyclohexanol] | < 100
20 | OCCCCCNc1ccc2ncc(-c3cc4ccccc4s3)n2n1 [Compound 135, 5-(3-(benzo[b]thiophen-2-yl)imidazo[1,2-b]pyridazin-6-ylamino)pentan-1-ol] | 100 to 500
21 | COc1ccc(Nc2ccc3ncc(-c4cc5c(OC)c(OC)c(OC)cc5s4)n3n2)cc1OC [Compound 76, 3-(4,5,6-trimethoxybenzo[b]thiophen-2-yl)-N-(3,4-dimethoxyphenyl)imidazo[1,2-b]pyridazin-6-amine] | < 5000
22 | COC(=O)C1CCCN(c2ccc3ncc(-c4cc5ccccc5s4)n3n2)C1 (stereo not shown) [Compound 131, methyl 1-(3-(benzo[b]thiophen-2-yl)imidazo[1,2-b]pyridazin-6-yl)piperidine-3-carboxylate] | < 5000
23 | Oc1cccc2cc(-c3cnc4ccc(N[C@H]5CC[C@H](O)CC5)nn34)sc12 [Compound 77] | < 100
24 | O[C@H]1CC[C@H](Nc2ccc3ncc(-c4cc5ccncc5s4)n3n2)CC1 [Compound 219, trans-4-(3-(thieno[2,3-c]pyridin-2-yl)imidazo[1,2-b]pyridazin-6-ylamino)cyclohexanol] | < 5000
25 | O[C@H]1CC[C@H](Nc2ccc3ncc(-c4ccsc4)n3n2)CC1 [Compound 180, trans-(3-(thiophen-3-yl)imidazo[1,2-b]pyridazin-6-ylamino)cyclohexanol] | < 5000
26 | CC(C)Oc1cccc2cc(-c3cnc4ccc(N[C@H]5CC[C@H](O)CC5)nn34)sc12 [Compound 178, trans-4-(3-(7-isopropoxybenzo[b]thiophen-2-yl)imidazo[1,2-b]pyridazin-6-ylamino)cyclohexanol] | 100 to 500
27 | COc1ccc2c(c1)cc(-c1cnc3ccc(Nc4ccc(OC)c(OC)c4)nn13)n2C [Compound 193, 3-(5-methoxy-1-methyl-1H-indol-2-yl)-N-(3,4-dimethoxyphenyl)imidazo[1,2-b]pyridazin-6-amine] | < 5000
28 | COc1cccc2cc(-c3cnc4ccc(N[C@H]5CC[C@H](O)CC5)nn34)[nH]c12 [Compound 87, trans-4-(3-(7-methoxy-1H-indol-2-yl)imidazo[1,2-b]pyridazin-6-ylamino)cyclohexanol] | < 100
29 | COc1ccc(Nc2ccc3ncc(-c4cc5cncc(O)c5s4)n3n2)cc1OC [Compound 211, 2-(6-(3,4-dimethoxyphenylamino)imidazo[1,2-b]pyridazin-3-yl)thieno[3,2-c]pyridin-7-ol] | < 5000
30 | Cc1cccc2cc(-c3cnc4ccc(N[C@H]5CC[C@H](O)CC5)nn34)[nH]c12 [Compound 196, trans-4-(3-(7-methyl-1H-indol-2-yl)imidazo[1,2-b]pyridazin-6-ylamino)cyclohexanol] | 100 to 500
31 | CCCOc1cccc2cc(-c3cnc4ccc(Nc5ccc(OC)c(OC)c5)nn34)sc12 [Compound 81, N-(3,4-dimethoxyphenyl)-3-(7-propoxybenzo[b]thiophen-2-yl)imidazo[1,2-b]pyridazin-6-amine] | 500 to 1000
